# Laboratory results taken from PMC11579209, “Population pharmacokinetics and exposure–response relationships of maribavir in transplant recipients with cytomegalovirus infection” (Journal of Pharmacokinetics and Pharmacodynamics, 2024).
# Key:
# [1] = Population pharmacokinetic (PopPK) model (NONMEM), pooled maribavir plasma concentration–time data from phase 1, 2 and 3 studies; assay type: in vivo, human
# Experimental: A PopPK model was developed using non-linear mixed effects modeling (NONMEM) (v7.4.3) with pooled maribavir plasma concentration–time data from 667 participants in nine phase 1 studies (n = 182, single or repeated doses of 100, 200 or 400 mg), two phase 2 studies (NCT01611974, EudraCT 2010-024247-32, 400, 800, and 1200 mg BID), and one phase 3 study (SOLSTICE, NCT02931539, 400 mg BID; phase 2 and 3 combined: n = 485). The final PopPK analysis dataset comprised data from individuals who had received at least one dose of maribavir and had at least one quantifiable post-dose concentration. This model was used to describe the time course of maribavir plasma concentrations in healthy volunteers, participants with hepatic or renal impairment, stable renal transplant patients, and hematopoietic cell transplant (HCT) or solid organ transplant (SOT) recipients with CMV infection, including those with refractory CMV infection.
# One- (ADVAN2 TRANS2), two- (ADVAN4 TRANS4), and three (ADVAN12 TRANS4)-compartment models with first-order absorption, an absorption lag time, and linear clearance were initially investigated. The NONMEM control stream for the final model can be found in the Supplementary Methods S1 of the Supplementary Material 1. […] Consequently, the effects of co-administration of strong CYP3A4 inhibitors and strong CYP3A4 inducers were considered for inclusion in the base model. The effect of body weight (scaled to 70 kg) on both clearance and volume terms was also considered for inclusion in the base model.
# Structural and variance model parameters were estimated for the base model, and inter-individual variability (IIV) was included on all structural parameters. Runs with untransformed data were used to test the residual error models. Plots of weighted residuals were evaluated for homoscedasticity with respect to predictions and time since dose, and the structure of the base model was expanded as necessary to best reflect the characteristic shape of the observations over time. Dose and time dependency were explored for PK model parameters. Parameter estimation was performed using Monte Carlo Importance Sampling Expectation Maximization assisted by Mode a Posteriori, with MU referencing (where THETAs that define typical values of individual parameters, and are associated with random effects, are referenced in a PHI/MU format) to improve the efficiency of computations. The impact of post-dose observations below the lower limit of quantification (BLQ) was assessed in initial models by implementing the M3 method, which maximizes the likelihood for all the data treating BLQ observations as censored. The performance of the final PopPK model was evaluated using a confidence interval prediction-corrected visual predictive check (CI-pcVPC) method. In addition, the percentage of observations outside the overall 5th and 95th percentiles of the predicted data was calculated.
# Strong CYP3A4 inhibitors and inducers, as well as weight, were included in the base model.
# Continuous covariates were obtained from observations on the first day of dosing, or at screening if this value was not available. […] Categorical covariates were tested and incorporated in the model as a series of index variables taking on values of zero or one.
# The full model with backwards deletion approach was used for covariate modeling, with all covariate parameter relationships of interest entered into the model simultaneously. Highly correlated covariates were tested one at a time to avoid confounding in the estimation of covariate effects. A backwards deletion was carried out at the p = 0.001 significance level. The order of removal was based on the relative standard error and 95% confidence interval (CI) of the parameter estimate.
# CMV = conditions: SOLSTICE, maribavir 400 mg BID vs IAT, cited from earlier work
# [2] = design: method as in PMID 18316526; conditions: concomitant ketoconazole; cited from earlier work
# [3] = design: method as in PMID 31532960, PMID 30329038; conditions: doses up to 1200 mg BID, cited from earlier work
# [4] = reference: 70-kg individual without CMV, 800 mg
compound,measurement,setting,value
CC(C)Nc1nc2cc(Cl)c(Cl)cc2n1[C@H]1O[C@@H](CO)[C@H](O)[C@@H]1O [maribavir],CL/F higher in the presence of strong CYP3A4 inducers,[1]; final PopPK model,2.24 fold
same,CL/F lower in the presence of strong CYP3A4 inhibitors,[1]; final PopPK model,30%
same,"CL/F ~ CYP3A strong inducers, covariate estimate",[1]; final PopPK model,2.24
same,"CL/F ~ CYP3A strong inhibitors, covariate estimate",[1]; final PopPK model,0.700
same,"CL/F ~ transplant patients with CMV, covariate estimate",[1]; final PopPK model,0.756
same,CL/F lower for transplant recipients with CMV infection than for all other individuals,"[1]; human, in vivo",24%
same,"Ka (first-order absorption), PopPK estimate",[1]; [4],0.336 h^–1
same,"Lag-time, PopPK estimate",[1]; [4],0.271 h
same,"Q/F (inter-compartment clearance), PopPK estimate",[1]; [4],0.908 L/h
same,"Vc/F (apparent volume of central compartment), PopPK estimate",[1]; [4],18.6 L
same,"Vp/F (apparent volume of peripheral compartment), PopPK estimate",[1]; [4],8.66 L
same,"CL/F (apparent total clearance), PopPK estimate","[1]; reference: 70-kg individual without CMV, 800 mg maribavir, no CYP3A strong inhibitors or inducers",3.77 L/h
same,"Proportion of patients achieving key secondary endpoint (CMV viremia clearance and symptom control at end of week 8, maintained through week 16)",CMV,18.7%
same,Proportion of patients achieving primary endpoint (confirmed CMV viremia clearance at week 8),CMV; transplant recipients with refractory CMV,55.7%
same,Increase in maribavir AUC0-∞,[2],53%
same,Increase in maribavir Cmax,[2],10%
same,Dose-related myelosuppression,[3],no evidence of dose-related myelosuppression
same,Incidence of dysgeusia across doses,[3]; transplant recipients with refractory CMV infection,similar
